The conditions of data set [1]: cited from earlier work.
Data set [2] in a line: Serum drug concentration after subcutaneous implantation of the minipump of Example 6. It counts as in vivo. The following applies: from s.c. minipump of Example 6 in male SD rats. The source says: The subcutaneous implantation type minipump prepared in Example 6 was subcutaneously implanted in the back of 7-week-old male SD rats. After a predetermined time after the implantation, blood was drawn from the tail vein of the rats, and serum was separated.

Molecules are shown by their SMILES.

Consider `O=C(O)c1cc2ccccc2cc1O` [3-hydroxy-2-naphthoic acid], for which the pKa in data set [1] is recorded as 2.708.
In the case of `CONC(=O)Nc1ccc(-c2sc3c(c2CN(C)Cc2ccccc2)c(=O)n(-c2ccccc2)c(=O)n3Cc2c(F)cccc2F)cc1` [Reference Example 7, 5-(N-Benzyl-N-methylaminomethyl)-1-(2,6-difluorobenzyl)-6-[4-(3-methoxyureido)phenyl]-3-phenylthieno[2,3-d]pyrimidine-2,4(1H,3H)-dione], the “Period of sustained release” value in data set [2] amounted to 21 days.

In general, pKa refers to the pH at which an ionisable group is half protonated.

Values taken from patent US20040116522A1, “Medicinal solutions” (priority 2001, published 2004).
